Columns and labels:
Foxp3 in iTreg cells = assay: In vitro dose response and mechanism study in WT, Usp22-null and Usp21-null Treg cells; format: cell-based, murine
Experimental: (§1) FIG. 15: Usp22i-S02 halts Usp22-mediated Foxp3 deubiquitination. A, Graphical representation of Foxp3 MFI change in WT versus 22KO iTreg cells treated with various doses of Usp22i-S02 (n=3). B, Representative histogram of Foxp3 MFI level in iTreg cells as Usp22 inhibitor concentration increases from 0-20 μg/mL. C, Cell survival of iTreg cells treated with various doses of Usp22i-S02 (n=3). D, FOXP3 and USP22 protein level in WT and 22KO mice treated with 10 μg/mL Usp22i-S02. E-F, Graphical and representative data of Foxp3 MFI of human Treg cells treated with various doses of Usp22i-S02 (n=3). G, Graphical representation of Foxp3 MFI in WT, Usp21-null, and Usp22-null Treg cells treated with Usp22i-S02 at 10 μg/mL (n=3). H, FOXP3 and USP22 protein degradation of cycloheximide (10 μg/mL) treated iTreg cells with or without the addition of 10 μg/mL of Usp22i-S02. I-J, Endogenous DUB assay IP in iTreg cells of USP22 with FOXP3 under increasing concentrations of Usp22i-S02. K, Foxp3 mRNA level in iTreg cells as Usp22 inhibitor concentration increases from 0-20 μg/mL (n=3). L, FOXP3 and USP22 level in WT iTreg cells with or without 20 μg/mL Usp22 inhibitor treated with 20 μM MG132. M, Graphical representation of the percentage of decrease of Foxp3 MFI in either WT or Usp22-null nTreg cells placed in low glucose conditions with or without the addition of 10 μg/mL of Usp22i-S02 (n=7-8). N, Graphical representation of the percentage of decrease of Foxp3 MFI in WT nTreg cells placed in hypoxic or low amino acid conditions with or without the addition of 10 μg/mL of Usp22i-S02 (n=3-5). G, Two-tailed unpaired t-test comparing within groups was performed to determine statistical significance. K, One-way ANOVA with Dunnet's multiple comparisons between rows relative to control was performed to determine statistical significance. M-N, Two-way ANOVA with Sidak's multiple comparisons between rows was performed to determine statistical significance. All data are presented as mean±stdev. NS, not significant. *P<0.05, **P<0.01, ***P<0.001, ****P<0.0001.
After initial screening, we ran an in vitro dose response study on compound S02, now dubbed Usp22i-S02, in both WT and Usp22-null iTreg cells (FIG. 15A-C).
All nTreg and iTreg cells were plated as described above DMOG (Sigma Catalog #D3695) was administered to the cells in relevant experiments at 1 mM for 24 hours. Oligomycin (Sigma Catalog #75351) was administered at 1 μM to the media of the cells in relevant experiments for 24 hours. Torin 1 (Millipore Catalog #475991) was administered to the relevant cells at 250 nM for 24 hours. FOXP3 protein level was assessed via flow cytometry following […] of treatment of inhibitors described above. In vitro administration of Usp22i-S02 was at 10 ug/mL.

[1] = test system: Foxp3 in human Treg cells; assay: Foxp3 MFI of human Treg cells treated with Usp22i-S02; format: cell-based; conditions: low doses
Experimental: as §1, with “N, Graphical representation of the percentage of decrease of Foxp3 MFI in WT nTreg cells placed in hypoxic or low amino acid conditions with or without the addition of 10 μg/mL of Usp22i-S02 (n=3-5). G, Two-tailed unpaired t-test comparing within groups was performed to determine statistical significance. K, One-way ANOVA with Dunnet's multiple comparisons between rows relative to control was performed to determine statistical significance. M-N, Two-way ANOVA with Sidak's multiple comparisons between rows was performed to determine statistical significance. All data are presented as mean±stdev. NS, not significant. *P<0.05, **P<0.01, ***P<0.001, ****P<0.0001.” left out

## N#Cc1c2c(c(Nc3ccccc3)n3c1nc1ccccc13)CCCC2 [Chemical S02, 11-anilino-7,8,9,10-tetrahydro-benzimidazo [1,2-b] isoquinoline-6-carbonitrile]
Foxp3 in iTreg cells; 10 μg/mL
  viability of iTreg cells: little effect on viability
Foxp3 in iTreg cells; Usp21-null iTreg cells, 10 μg/mL
  effect on Foxp3 in iTreg cells lacking Usp21: full effect
Foxp3 in iTreg cells; WT iTreg cells, 10 μg/mL
  Foxp3 MFI and protein level: decreases in Foxp3 MFI and protein level comparable to Usp22-null iTreg cells
Foxp3 in iTreg cells; WT nTreg cells, low glucose, 10 μg/mL
  Foxp3 stability under glucose starvation: significantly diminished Foxp3 stability
Foxp3 in iTreg cells; cycloheximide (CHX) treated iTreg cells
  FOXP3 degradation: enhanced FOXP3 degradation
Foxp3 in iTreg cells; iTreg cells, Foxp3 mRNA, 0-20 μg/mL
  Foxp3 transcription: decreased Foxp3 transcription
Foxp3 in iTreg cells; iTreg cells, endogenous DUB assay IP
  FOXP3 ubiquitination: increased FOXP3 ubiquitination
Foxp3 in iTreg cells; murine Treg cells lacking Usp22, in vivo and in vitro
  FOXP3 levels in Treg cells lacking Usp22: minimal effect on FOXP3 levels
[1]
  Foxp3 MFI: significantly decreased Foxp3 MFI
  cell viability: little effect to cell viability

— patent publication US20240238274A1, “INHIBITORS OF UBIQUITIN SPECIFIC PEPTIDASE 22 (USP22) AND USES THEREOF FOR TREATING DISEASE AND DISORDERS” (Northwestern University, priority 2021, published 2024)
